Values after ≈ are worked out from the molar mass of the structure shown. Where a name gives a salt, the structure may show the parent alone. Read-outs that look alike come from different tables or passages of the source.

Our source for the MIC values is patent US10266544B2, “Aryl substituted aminomethyl spectinomycin analogs as antibacterial agents” (ST. JUDE CHILDREN'S RESEARCH HOSPITAL, INC., priority 2013, dated 2019).

Holding throughout (type): cell-based
For assay [1], the system named is Enterococcus faecalis (ATCC 33186). As to the kind of experiment: MIC determination, microbroth dilution. Particulars: ATCC33186; Enterococcus faecalis (ATCC 33186); read-out: MIC E.f. For orientation: Dilution methods test growth across graded concentrations, often in twofold steps.
The subject of assay [2] is Bacillus anthracis, Sterne 34F2. As to the kind of experiment: microbe, parasite or virus in culture. The settings on record: STERNE34F2, read-out: MIC B.a.
The test system of assay [3] is Bacillus subtilis (ATCC 23857). As to the kind of experiment: MIC determination, microbroth dilution. The settings on record: ATCC23857; Bacillus subtilis (ATCC 23857); read-out: MIC B.s.
The test system of assay [4] is MRSA, Staphylococcus aureus (NRS70). As to the kind of experiment: MIC determination, microbroth dilution. Particulars: Staphylococcus aureus (NRS70); read-out: MIC MRSA.
Assay [5] deals with M. tuberculosis clinical isolates. As to the kind of experiment: microbe, parasite or virus in culture. The settings on record: Mycobacterium tuberculosis, H37RV, read-out: MIC H37Rv.
In assay [6] the test system is Staphylococcus aureus (ATCC 29213). Description: MIC determination, microbroth dilution. The settings on record: ATCC29213; Staphylococcus aureus (ATCC 29213); read-out: MIC S.a.
For assay [7], the system named is Streptococcus pyogenes (ATCC 700294). As to the kind of experiment: MIC determination, microbroth dilution. Particulars: ATCC700294; Streptococcus pyogenes (ATCC 700294); read-out: MIC S. py.
In assay [8] the test system is Streptococcus pneumoniae (R6). Description: MIC determination, microbroth dilution.
Assay [9] relates to Escherichia coli (ATCC 700926). As to the kind of experiment: MIC determination, microbroth dilution. As for the experimental part:
MICs were determined using the microbroth dilution method according to Clinical Laboratory Standards Institute (CLSI; National, C. F. C. L. S., Methods for Dilution Antimicrobial Susceptibility Tests for Bacteria Grow aerobically-Seventh Edition: Approved Standard M7-A7, CLSI, Wayne, Pa., USA, 2008) and were read by visual inspection. Two fold serial dilutions of antibiotic in 100 μL of the appropriate broth media were first prepared in 96-well round bottom microtiter plates (Nalge Nunc International, Rochester, N.Y., USA). An equivalent volume (100 μL) of bacterial broth inocula containing approximately 10^5 bacterial cfu/mL was added to each well to give final concentrations of drug starting at 200 μg/mL and the plates were incubated aerobically at 37° C. M. tuberculosis microtiter plates were incubated for 7 days and all other strains were incubated overnight. After incubations, in all cases the MIC was recorded as the lowest concentration of drug that prevented bacterial growth.

The test system of assay [10] is Klebsiella pneumoniae (ATCC 33495). As to the kind of experiment: MIC determination, microbroth dilution. The settings on record: ATCC33495.
For assay [11], the system named is Burkholderia cepacia (ATCC 25416). As to the kind of experiment: MIC determination, microbroth dilution. Particulars: Burkholderia cepacia, ATCC25416, read-out: MIC B.c., Burkholderia cepacia (ATCC 25416).
Assay [12] has as its system Proteus mirabilis (ATCC 25933). Description: MIC determination, microbroth dilution. The settings on record: ATCC25933.
Another assay deals with E. coli K12 ΔtolC. Description: microbe, parasite or virus in culture. Particulars: Escherichia coli, read-out: MIC E.c. Δtolc.
The test system of assay [13] is Proteus vulgaris (ATCC 33420). Description: MIC determination, microbroth dilution. The settings on record: ATCC33420.
Assay [14] deals with acinetobacter baumannii (ATCC 19606). As to the kind of experiment: MIC determination, microbroth dilution. Particulars: ATCC19606.
For assay [15], the system named is Stenotrophomonas maltophilia (ATCC 13637). Description: MIC determination, microbroth dilution. The settings on record: ATCC13637; Stenotrophomonas maltophilia (ATCC 13637); read-out: MIC S.m.
In assay [16] the test system is Pseudomonas aeruginosa (PA01). Description: MIC determination, microbroth dilution.
In assay [17] the test system is Streptococcus pneumoniae clinical isolates representing several serotypes. Description: MIC determination, Streptococcus pneumoniae panel of clinical isolates (Table 7). The settings on record: Streptococcus pneumoniae.
The mark [18] stands for this setting: Streptococcus pneumoniae (R6), read-out: MIC S. pn.
Where [19] appears, read: ATCC700926, Escherichia coli (ATCC 700926), read-out: MIC E.c.

Turning to `CN[C@@H]1[C@H](O)[C@H](NC)C2O[C@]3(O)C(OC2[C@H]1O)O[C@H](C)C[C@@]3(O)CNCc1ccc(CO)o1` (stereo partly drawn) [compound 42], the MIC was 200 µg/mL (≈ 422 µM) in assay [1]; > 200 µg/mL in assay [2]; 50 µg/mL (≈ 106 µM) in assay [3]; > 200 µg/mL in assay [4]; 25 µg/mL (≈ 52.8 µM) in assay [5]; 200 µg/mL (≈ 422 µM) in assay [6]. For the same compound, the MIC in assay [7] and in assay [8] (setting [18]) was 50 µg/mL (≈ 106 µM) each time.
Regarding `CN[C@@H]1[C@H](O)[C@H](NC)[C@H]2O[C@]3(O)[C@H](O[C@@H]2[C@H]1O)O[C@H](C)C[C@@]3(O)CNCc1cnccn1` [compound 67, 3′-(R)-3′-[(pyrazin-2-ylmethyl)aminomethyl]dihydrospectinomycin tetrahydrobromide], the MIC in assay [9] (setting [19]) is 50 to 100 µg/mL; in assay [10], 100 µg/mL; in assay [11], > 200 µg/mL; in assay [2], 200 µg/mL; in assay [3], 100 µg/mL; in assay [4], > 200 µg/mL. Besides, the MIC in [12] is > 200 µg/mL; with E. coli K12 ΔtolC, 25 to 50 µg/mL; in [13], > 200 µg/mL; in assay [14], > 200 µg/mL; in assay [15], 100 µg/mL; in assay [6], > 200 µg/mL. The MIC is 100 µg/mL in assay [7], > 200 µg/mL in [16] and 6.3 µg/mL in [8] (setting [18]).
`CN[C@@H]1[C@H](O)[C@H](NC)[C@H]2O[C@]3(O)[C@H](O[C@@H]2[C@H]1O)O[C@H](C)C[C@@]3(O)CNCc1ccc(S(C)(=O)=O)cc1` [compound 69, 3′-(R)-3′-[(4-(methylsulfonyl)benzylaminomethyl)]dihydrospectino-mycin trihydrobromide]: the MIC is 50 to 100 µg/mL in [9] (setting [19]); > 200 µg/mL in assay [10]; > 200 µg/mL in assay [11]; > 200 µg/mL in assay [2]; > 200 µg/mL in assay [3]; > 200 µg/mL in [4]. Besides, the MIC in assay [12] is > 200 µg/mL; with E. coli K12 ΔtolC it was 12.5 to 25 µg/mL; in assay [13] it was > 200 µg/mL; in assay [14] it was > 200 µg/mL; in assay [15], > 200 µg/mL; in assay [6], > 200 µg/mL. In addition, the results for the MIC in [7], in assay [16] and in assay [8] (setting [18]) were 100 µg/mL, > 200 µg/mL and 100 µg/mL, respectively.
Consider `CN[C@@H]1[C@H](O)[C@H](NC)C2O[C@]3(O)C(OC2[C@H]1O)O[C@H](C)C[C@@]3(O)CNCc1cccc(C(=O)OC)c1` (stereo partly drawn) [compound 41], for which the MIC in [1] is 200 µg/mL (≈ 391 µM); in [2] it was > 200 µg/mL; in assay [3], 50 µg/mL (≈ 97.7 µM); in assay [4], 200 µg/mL (≈ 391 µM); in assay [5], 50 µg/mL (≈ 97.7 µM); in assay [6] it was 200 µg/mL (≈ 391 µM). The MIC in assay [7] and in assay [8] (setting [18]) was 50 µg/mL (≈ 97.7 µM) throughout.
In the case of `CN[C@@H]1[C@H](O)[C@H](NC)C2O[C@]3(O)C(OC2[C@H]1O)O[C@H](C)C[C@@]3(O)CNCc1ccc2ccn(C)c2c1` (stereo partly drawn) [compound 43], the MIC is 100 µg/mL (≈ 197 µM) in [1]; > 200 µg/mL in assay [2]; 12.5 µg/mL (≈ 24.7 µM) in [3]; 12.5 µg/mL (≈ 24.7 µM) in [4]; 100 µg/mL (≈ 197 µM) in [5]; 50 µg/mL (≈ 98.7 µM) in assay [6]. Moreover, the MIC worked out at 100 µg/mL (≈ 197 µM) in assay [7] and 200 µg/mL (≈ 395 µM) in assay [8] (setting [18]).
In the case of `CN[C@@H]1[C@H](O)[C@H](NC)C2O[C@]3(O)C(OC2[C@H]1O)O[C@H](C)C[C@@]3(O)CNCc1ccc(C)o1` (stereo partly drawn) [compound 46], the MIC in assay [1] is 100 µg/mL (≈ 219 µM); in [2], > 200 µg/mL; in assay [3] it was 50 µg/mL (≈ 109 µM); in assay [4] it was > 200 µg/mL; in assay [5], 25 µg/mL (≈ 54.6 µM); in [6] it was 50 µg/mL (≈ 109 µM). Further, the MIC in assay [7] and in assay [8] (setting [18]) was 12.5 µg/mL (≈ 27.3 µM) throughout.
Regarding `CN[C@@H]1[C@H](O)[C@H](NC)[C@H]2O[C@]3(O)[C@H](O[C@@H]2[C@H]1O)O[C@H](C)C[C@@]3(O)CNCc1ccc(SC)cc1` [compound 68, 3′-(R)-3′-[(4-(methylthio)benzylaminomethyl)]dihydrospectinomycin trihydrobromide], the MIC in assay [9] (setting [19]) was 50 µg/mL; in assay [10] it was 100 to 200 µg/mL; in [11], > 200 µg/mL; in assay [2] it was 25 µg/mL; in assay [3], 25 µg/mL; in [4], 50 µg/mL. Further, the MIC in [12] is > 200 µg/mL; in the assay with E. coli K12 ΔtolC, 12.5 µg/mL; in [13], > 200 µg/mL; in assay [14], > 200 µg/mL; in [15], 25 µg/mL; in assay [6] it was 25 µg/mL. Also, the MIC is 3.1 µg/mL in assay [7], 200 µg/mL in [16] and 1.6 µg/mL in [8] (setting [18]).
`CN[C@@H]1[C@H](O)[C@H](NC)[C@H]2O[C@]3(O)[C@H](O[C@@H]2[C@H]1O)O[C@H](C)CC3(O)CN` (stereo partly drawn) [mSPC, 3′-aminomethyl-3′-hydroxy spectinomycin, reference compound]: the MIC stood at 200 µg/mL (≈ 550 µM) in [17] (BAA1407, S. pneumoniae BAA-1407, Macrolide Resistant, read-out: MIC BAA-1407); 50 µg/mL (≈ 138 µM) in [17] (S. pneumoniae A66.1x, Drug Susceptible, read-out: MIC A66.1x); 50 µg/mL (≈ 138 µM) in assay [17] (S. pneumoniae BHN97x, Drug Susceptible, read-out: MIC BHN97x); 100 µg/mL (≈ 275 µM) in [17] (S. pneumoniae D39X, Drug Susceptible, read-out: MIC D39X); 100 µg/mL (≈ 275 µM) in [17] (S. pneumoniae Daw7, PenG Resistant, read-out: MIC Daw7); 100 µg/mL (≈ 275 µM) in assay [17] (S. pneumoniae Daw8, PenG Resistant, read-out: MIC Daw8). Besides, the MIC in assay [17] (S. pneumoniae Daw9, PenG Resistant, read-out: MIC Daw9) is 50 µg/mL (≈ 138 µM); in assay [17] (S. pneumoniae Daw62, PenG Resistant, read-out: MIC Daw62), 100 µg/mL (≈ 275 µM); in assay [17] (S. pneumoniae Daw64, PenG Resistant, read-out: MIC Daw64), 100 µg/mL (≈ 275 µM); in assay [17] (S. pneumoniae OVA6, Macrolide Resistant, read-out: MIC OVA6), 50 µg/mL (≈ 138 µM); in assay [17] (S. pneumoniae T4X, Drug Susceptible, read-out: MIC T4X) it was 50 µg/mL (≈ 138 µM); in assay [8] (Streptococcus pneumoniae, S. pneumoniae R6, Drug Susceptible, read-out: MIC R6), 50 µg/mL (≈ 138 µM).
`CN[C@@H]1[C@H](O)[C@H](NC)C2O[C@]3(O)C(OC2[C@H]1O)O[C@H](C)C[C@@]3(O)CNCc1cccc(C(F)(F)F)c1` (stereo partly drawn) [compound 50]: the MIC is 25 µg/mL (≈ 47.9 µM) in [1]; > 200 µg/mL in [2]; 12.5 µg/mL (≈ 24 µM) in assay [3]; 50 µg/mL (≈ 95.9 µM) in assay [4]; 50 µg/mL (≈ 95.9 µM) in [6]; 1.56 µg/mL (≈ 2.99 µM) in [7]. Besides, the MIC in assay [8] (setting [18]) was 3.13 µg/mL (≈ 6 µM).
Consider `CN[C@@H]1[C@H](O)[C@H](NC)[C@H]2O[C@]3(O)[C@H](O[C@@H]2[C@H]1O)O[C@H](C)C[C@@]3(O)CNCc1cncnc1` [compound 66, 3′-(R)-3′-[(pyrimidin-5-ylmethyl)aminomethyl]dihydrospectinomycin tetrahydrobromide], for which the MIC in [9] (Escherichia coli, ATCC700926, read-out: MIC E.c.) is 50 µg/mL; in [10], 100 to 200 µg/mL; in assay [11], > 200 µg/mL; in [2], 100 µg/mL; in [3] it was 200 µg/mL; in assay [4], > 200 µg/mL. The MIC in assay [12] is > 200 µg/mL; in the assay on E. coli K12 ΔtolC it was 25 to 50 µg/mL; in assay [13], > 200 µg/mL; in [14], > 200 µg/mL; in assay [15] it was 100 µg/mL; in [6] it was > 200 µg/mL. The MIC in [7] was 100 µg/mL; in [16], > 200 µg/mL; in [8] (setting [18]) it was 0.8 µg/mL.
